Read-outs that look alike come from different tables or passages of the source.
Columns and labels:
[1] = tested on: K562/ADR leukemia transplanted tumor; test: Experiment 2-2: inhibition of leukemia transplanted tumor in nude mice (TTD, IM); format: in vivo, BALB/c-nu nude mice; conditions: K562/ADR xenograft, 50 mg/kg each drug, intragastric, 2 times a day, 14 days, Day 20; for Tumor inhibition rate (%): control = 0; for Tumor weight: x ± s
Protocol: Leukemia cell lines: K562/ADR (ADM-resistant human chronic myeloid leukemia cell line);
(§1) Animals: BALB/c-nu nude mice
(§2) Under sterile conditions, the above tumor cells were collected in the logarithmic growth phase, and were injected by subcutaneous injection in an amount of 1×10^7/0.2 mL/nude mice (cell viability>95%) into the right subaxillary of the nude mice, thus establishing leukemia transplated tumor models of in nude mice. The mice were administered from the sixth day after the inoculation. The treated group was intragastrically administered at the experimentally designed amount, the negative control group was intragastrically administered with sterile water, and the positive control group was intragastrically administered with IM. Each mouse was intragastrically administered in 0.4 ml each time and 2 times a day. The administrations were successive for 14 days. The day before administration was deemed as Day 0 and the body weight and tumor size of the mice were determined every 5 days to produce a dynamic plot on body weight and tumor growth. On Day 20, the mice were sacrificed and the tumors are taken out and weighed. The tumor inhibition rate (%) was calculated after the effect of the medicament based on a tumor inhibition rate of the control group being zero.

[2] = Experiment 2-2: body weight of tumor-bearing nude mice; format: in vivo, BALB/c-nu nude mice; conditions: 50 mg/kg each drug, intragastric, 2 times a day, 14 days, x ± s, n=3; for Body weight (g) Final: final (Day 20)
Protocol: as §2

[3] = Experiment 2-1: body weight of tumor-bearing nude mice; format: in vivo, BALB/c-nu nude mice; conditions: 100 mg/kg each drug, intragastric, 2 times a day, 14 days, x ± s, n=3; for Body weight (g) Final: final (Day 23)
Protocol: as §2, with “third” for “sixth”, “23,” for “20,”, “were” for “are”

[4] = tested on: KU812 (chronic myeloid leukemia cell line); test: MTT cell viability, 72 h, single drugs and combination; format: cell-based; conditions: Homo sapiens, KU812, 72 h; read-out: CV(%) cell viability
Source text: (§3) Leukemia cell lines: K562 (chronic myeloid leukemia cell line), K562/ADR (doxorubicin(ADM)-resistant human chronic granulocytic leukemia cell line), KCL-22 (chronic myeloid leukemia cell line), KCL-22 M (human chronic granulocytic leukemia cell line mutant), CML-BC (KCL-28 patient's cells), all of which are donated by Cancer Research Institute of Zhejiang University, China; KU812 (chronic myeloid leukemia cell line), purchased from Fuxiang Bio-tech Co. Ltd., Shanghai, China.
(§4) 1. […] Well-growing leukemia cells were obtained and inoculated into wells of a 96-well cell culture plate at 5000 cells/well. Respective compounds of various concentrations were added, mixed uniformly, and incubated (5% CO2) at 37° C. for 72 hours. Then the cell viability was determined by the MTT method.
(§5) 2. Determine the inhibitory effects of bisbenzylisoquinoline in combination with IM on leukemia cells in vitro. The pretreatment of the cells was the same as in a). The control group was not treated with the compound while administered. In the experimental group, compounds were added respectively to the concentration under which the IC50 (μg/mL) of the compounds in step 1 achieves. As to the combination group, the two compounds were added together into the same group of wells. After 72 hours of incubation, the MTT method was used for the determination of cell viability. The cell viability of the control group was set to 100% in this experiment, and the BBM/TTD, IM single drug and combined effects on cell viability (100%) were calculated.

[5] = tested on: KCL-22 M (human chronic granulocytic leukemia cell line mutant); test: as above; format: cell-based; conditions: read-out: CV(%) cell viability
Source text: as §3, §4, §5

[6] = tested on: K562/ADR (doxorubicin(ADM)-resistant human chronic granulocytic leukemia cell line); test: as above; format: cell-based; conditions: read-out: CV(%) cell viability
Source text: as §3, §4, §5

[7] = tested on: KCL-22 (chronic myeloid leukemia cell line); test: as above; format: cell-based; conditions: Homo sapiens, read-out: CV(%) cell viability
Source text: as §3, §4, §5

[8] = tested on: CML-BC (KCL-28 patient's cells); test: as above; format: cell-based; conditions: read-out: CV(%) cell viability
Source text: as §3, §4, §5

[9] = tested on: K562 (chronic myeloid leukemia cell line); test: as above; format: cell-based; conditions: Homo sapiens, read-out: CV(%) cell viability
Source text: as §3, §4, §5

[10] = tested on: K562/ADR leukemia transplanted tumor; test: Experiment 2-1: inhibition of leukemia transplanted tumor in nude mice (BBM, IM); format: in vivo, BALB/c-nu nude mice; conditions: K562/ADR xenograft, 100 mg/kg each drug, intragastric, 2 times a day, 14 days, Day 23; for Tumor inhibition rate (%): control = 0; for Tumor weight: x ± s
Protocol: Leukemia cell lines: K562/ADR (ADM-resistant human chronic granulocytic leukemia cell line);
as §1
as §2, with “third” for “sixth”, “23,” for “20,”, “were” for “are”

[11] = tested on: human leukemia Jurkat cells; conditions: cited from earlier work
[12] = tested on: peripheral blood leucocyte of a normal human being; conditions: drug concentration 0.5 μg/mL to 10 μg/mL; cited from earlier work

COc1ccc2cc1Oc1ccc(cc1)C[C@H]1c3cc(c(OC)cc3CCN1C)Oc1c(OC)c(OC)cc3c1[C@H](C2)N(C)CC3 [TTD, 6,6′,7,12-tetramethoxy-2,2′dimethylberbamine]
Tumor inhibition rate (%) [1]: 10.18%
Tumor weight [1]: 0.83 ± 0.76 g
Body weight (g) Final [2]: 18.93 ± 1.53 g
Body weight (g) Initial [2]: 21.30 ± 0.10 g

Cc1ccc(NC(=O)c2ccc(CN3CCN(C)CC3)cc2)cc1Nc1nccc(-c2cccnc2)n1 [IM]
Body weight (g) Final [3]: 17.37 ± 2.75 g
Body weight (g) Initial [3]: 21.00 ± 0.12 g
viability at 0.01 µg/mL [4]: 56.7%
viability at 0.03 µg/mL [4]: 53.3%
viability at 3.27 µg/mL ([5]; KCL-22 M, IM 3.27 μg/mL (IC50 dose), 72 h, MTT): 48%
viability at 0.16 µg/mL ([6]; K562/ADR, IM 0.16 μg/mL (IC50 dose), MTT): 42.5%
viability at 0.2 µg/mL ([6]; K562/Adr): 42.3%
viability at 0.05 µg/mL ([7]; KCL-22, 72 h): 51.1%
viability at 0.08 µg/mL ([7]; KCL-22, IM 0.08 μg/mL (IC50 dose), 72 h, MTT): 48.5%
viability at 0.01 µg/mL [8]: 57.1%
viability at 0.02 µg/mL [8]: 57.1%
viability at 0.02 µg/mL ([9]; K562, 72 h): 57.9%
viability at 0.03 µg/mL ([9]; K562, 72 h): 44.2%
Tumor inhibition rate (%) [1]: 12.26%
Tumor weight [1]: 0.81 ± 0.52 g
Body weight (g) Final [2]: 18.40 ± 0.52 g
Body weight (g) Initial [2]: 21.47 ± 0.21 g
Tumor inhibition rate (%) [10]: 71.98%
Tumor weight [10]: 0.19 ± 0.27 g

COc1cc2c3cc1Oc1c(OC)c(OC)cc4c1[C@@H](Cc1ccc(O)c(c1)Oc1ccc(cc1)C[C@@H]3N(C)CC2)N(C)CC4 [BBM, 6,6′,7-trimethoxy-2,2′-dimethylberbaman-12-ol]
Body weight (g) Final [3]: 18.57 ± 2.28 g
Body weight (g) Initial [3]: 21.23 ± 0.23 g
viability at 1.5 µg/mL [4]: 51.6%
viability at 1.7 µg/mL ([5]; KCL-22, 72 h): 52.4%
viability at 1.5 µg/mL ([6]; K562/Adr): 46.3%
viability at 6.5 µg/mL ([7]; KCL-22, BBM 6.5 μg/mL (IC50 dose), 72 h, MTT): 50%
viability at 1.5 µg/mL [8]: 54.4%
viability at 1.6 µg/mL ([9]; K562, BBM 1.6 μg/mL (IC50 dose), 72 h, MTT): 44.5%
cell viability ([11]; drug concentration 0.5 μg/mL): 93.69%
cell viability ([11]; drug concentration 10 μg/mL): 14.85%
cytotoxic effect [12]: no evident cytotoxic effect
Tumor inhibition rate (%) [10]: 63.66%
Tumor weight [10]: 0.25 ± 0.34 g

Reference: US20150238488A1, “DRUG COMPOSITION FOR TREATING TUMORS AND APPLICATION THEREOF” (priority 2012, published 2015)
